Measurements as given in ChEMBL document CHEMBL1201862, “PubChem BioAssay data set” (2004).
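Cells were grown in 96-well plates and exposed to each compound for 48 hours at five concentrations; endpoints were interpolated linearly between bracketing concentrations, or set to the highest concentration if not reached. Here, GI50 denotes the concentration required for 50% inhibition of growth.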 Active and inactive are the calls of the source. No stated cut-off is given here; in the data, active = GI50 up to about 1.1 µM and inactive = higher.

Columns and labels:
Experiment in all cases: inhibition of tumour cell growth, NCI panel, 48 h
[1] = system: SF-295
[2] = system: SK-OV-3
[3] = system: OVCAR-4
[4] = system: M19-MEL
[5] = system: COLO 205
[6] = system: EKVX
[7] = system: HOP-62
[8] = system: RXF 631
[9] = system: A498
[10] = system: NCI-H23
[11] = system: HT-29
[12] = system: K562
[13] = system: HL-60
[14] = system: SNB-19
[15] = system: HCC 2998
[16] = system: A549
[17] = system: SK-MEL-2
[18] = system: OVCAR-8
[19] = system: Malme-3M
[20] = system: KM12
[21] = system: OVCAR-3
[22] = system: SF-539
[23] = system: HOP-18
[24] = system: CAKI-1
[25] = system: UO-31
[26] = system: LOX IMVI
[27] = system: 786-0
[28] = system: OVCAR-5
[29] = system: DMS-273
[30] = system: SN12C
[31] = system: HOP-92
[32] = system: NCI-H460
[33] = system: NCI-H226
[34] = system: SF-268
[35] = system: CCRF-CEM
[36] = system: HCT-15
[37] = system: M14
[38] = system: UACC-62
[39] = system: SR
[40] = system: KM-20L2
[41] = system: UACC-257
[42] = system: TK-10
[43] = system: U-251
[44] = system: LXFL 529
[45] = system: SK-MEL-28
[46] = system: HCT-116
[47] = system: SW-620
[48] = system: SNB-75
[49] = system: SK-MEL-5
[50] = system: ACHN
[51] = system: DLD-1
[52] = system: RXF 393
[53] = system: DMS-114
[54] = system: XF498
[55] = system: IGROV-1
[56] = system: SNB-78

SMILES: O=C(CCc1nnc(S)[nH]1)NC12CC3CC(CC(C3)C1)C2
- GI50 [1]: > 100 µM (inactive)
- GI50 [2]: > 100 µM (inactive)
- GI50 [3]: > 100 µM (inactive)
- GI50 [4]: > 100 µM (inactive)
- GI50 [5]: > 100 µM (inactive)
- GI50 [6]: > 100 µM (inactive)
- GI50 [7]: > 100 µM (inactive)
- GI50 [8]: > 100 µM (inactive)
- GI50 [9]: > 100 µM (inactive)
- GI50 [10]: > 100 µM (inactive)
- GI50 [11]: > 100 µM (inactive)
- GI50 [12]: > 100 µM (inactive)
- GI50 [13]: > 100 µM (inactive)
- GI50 [14]: > 100 µM (inactive)
- GI50 [15]: > 100 µM (inactive)
- GI50 [16]: > 100 µM (inactive)
- GI50 [17]: > 100 µM (inactive)
- GI50 [18]: > 100 µM (inactive)
- GI50 [19]: > 100 µM (inactive)
- GI50 [20]: > 100 µM (inactive)
- GI50 [21]: > 100 µM (inactive)
- GI50 [22]: > 100 µM (inactive)
- GI50 [23]: > 100 µM (inactive)
- GI50 [24]: > 70.5 µM (inactive)
- GI50 [25]: > 100 µM (inactive)
- GI50 [26]: > 100 µM (inactive)
- GI50 [27]: > 100 µM (inactive)
- GI50 [28]: > 100 µM (inactive)
- GI50 [29]: > 100 µM (inactive)
- GI50 [30]: > 100 µM (inactive)
- GI50 [31]: > 100 µM (inactive)
- GI50 [32]: > 100 µM (inactive)
- GI50 [33]: > 100 µM (inactive)
- GI50 [34]: > 10 µM (inactive)
- GI50 [35]: > 100 µM (inactive)
- GI50 [36]: > 100 µM
- GI50 [37]: > 100 µM (inactive)
- GI50 [38]: > 100 µM (inactive)
- GI50 [39]: 1 µM (active)
- GI50 [40]: > 100 µM (inactive)
- GI50 [41]: > 100 µM (inactive)
- GI50 [42]: > 100 µM (inactive)
- GI50 [43]: > 100 µM (inactive)
- GI50 [44]: > 100 µM (inactive)
- GI50 [45]: > 100 µM (inactive)
- GI50 [46]: > 100 µM (inactive)
- GI50 [47]: > 100 µM (inactive)
- GI50 [48]: > 100 µM (inactive)
- GI50 [49]: > 100 µM (inactive)
- GI50 [50]: > 100 µM (inactive)
- GI50 [51]: > 100 µM (inactive)
- GI50 [52]: > 100 µM (inactive)
- GI50 [53]: > 100 µM (inactive)
- GI50 [54]: > 100 µM (inactive)
- GI50 [55]: > 100 µM (inactive)
- GI50 [56]: > 100 µM (inactive)
